Source: the Kinase Knowledgebase extract (Sharma et al. 2016)

The compounds below were run against CDK2 (human) (UniProt P24941) (assay: Enzyme Assay).

Ki, < 1000 nM:
O=c1[nH][nH]c2cc(C(F)(F)F)c(-c3nc(Nc4n[nH]c5c(F)cc(F)cc45)c4cnsc4n3)cc12, Cc1cnc(NOCCSc2ccc3c(=O)[nH][nH]c3c2)s1, O=c1[nH][nH]c2cc(Nc3ccc([N+](=O)[O-])c(Nc4cc(C5CC5)[nH]n4)n3)ccc12, Cc1cc(Nc2nc(Nc3ccc4c(=O)[nH][nH]c4c3)nc3c2CCNC3)n[nH]1, Cc1cc(Nc2nc(Sc3ccc4c(=O)[nH][nH]c4c3)nc3c(O)cccc23)n[nH]1, Cc1cc(Nc2cc(-c3ccccc3)nc(Oc3ccc4c(=O)[nH][nH]c4c3)n2)n[nH]1, Cc1cc(Nc2nc(-c3ccc4[nH][nH]c(=O)c4c3C(F)(F)F)nc3c2CCNCC3)n[nH]1, O=c1[nH][nH]c2cc(Oc3cc(Nc4cc(C5CC5)[nH]n4)c4ccccc4n3)ccc12, CN1CCN(C(=O)c2cc(Nc3nc(-c4ccc5[nH][nH]c(=O)c5c4)nc4ccccc34)n[nH]2)CC1, Cc1cc(Nc2nc(C3(c4ccc5c(=O)[nH][nH]c5c4)CC3)nc3ccccc23)n[nH]1, COCc1cc(Nc2nc(-c3ccc4[nH][nH]c(=O)c4c3C(F)(F)F)nc3ccccc23)n[nH]1, CCc1cc(Nc2cc(C)[nH]n2)nc(COc2ccc3[nH][nH]c(=O)c3c2)n1, Cc1cc(Nc2cc(C(C)(C)OCCN(C)C)nc(Sc3ccc4c(=O)[nH][nH]c4c3)n2)n[nH]1, O=c1[nH][nH]c2ccc(C3CCC(Nc4cc(C5CC5)[nH]n4)C3)cc12 (stereo unspecified), O=c1[nH][nH]c2cc(OCCONc3ccccn3)ccc12, Cn1cnc(NC2CCCC(c3ccc4[nH][nH]c(=O)c4c3)C2)c1 (stereo unspecified), O=c1[nH][nH]c2cc(NCC3CCCC3Nc3ccccn3)ccc12 (stereo unspecified), Cc1cc(Nc2ccnc(Nc3ccc4c(=O)[nH][nH]c4c3)c2)n[nH]1, Cc1cc(Nc2nc(Sc3ccc4c(=O)[nH][nH]c4c3)nc3cc(OCCCN(C)C)ccc23)n[nH]1, O=c1[nH][nH]c2cc(SCCCNc3cc(C4CC4)[nH]n3)ccc12, O=c1[nH][nH]c2ccc(-c3nc4c(c(Nc5n[nH]c6c(F)cc(F)cc56)n3)CCCC4)c(C(F)(F)F)c12, Cc1cc(Nc2cc(C3CC3)[nH]n2)nc(Nc2ccc3c(=O)[nH][nH]c3c2)n1, O=c1[nH][nH]c2cc(NC3CCC(Nc4cc(C5CC5)[nH]n4)C3)ccc12 (stereo unspecified), O=C(CCNc1ccc2c(=O)[nH][nH]c2c1)Nc1ccccn1, Cc1cccc(-c2cc(Nc3cc(C)[nH]n3)nc(Oc3ccc4c(=O)[nH][nH]c4c3)n2)c1, Cc1cc(Nc2cc(-c3ccccc3C)nc(Sc3ccc4c(=O)[nH][nH]c4c3)n2)n[nH]1, O=c1[nH][nH]c2cc(Nc3cccc(Nc4ccccn4)c3)ccc12, O=c1[nH][nH]c2cc(NCCC(Nc3ccccn3)c3ccccc3)ccc12 (stereo unspecified), Cc1cccc2nc(Nc3ccc4c(=O)[nH][nH]c4c3)nc(Nc3cc(C4CC4)[nH]n3)c12, O=c1[nH][nH]c2ccc(-c3nc(Nc4n[nH]c5ccccc45)c4ccccc4n3)c([N+](=O)[O-])c12, O=c1[nH][nH]c2cc(C3CC3)c(-c3nc(Nc4n[nH]c5c(F)cc(F)cc45)c4ccccc4n3)cc12, Nc1c(Nc2ccc3c(=O)[nH][nH]c3c2)ncnc1Nc1cc(C2CC2)[nH]n1, Cc1cnc(Oc2ccc3c(=O)[nH][nH]c3c2)nc1Nc1cc(C2CC2)[nH]n1, Cc1cc(Nc2cc(NCCN(C)C)nc(Sc3ccc4c(=O)[nH][nH]c4c3)n2)n[nH]1, O=C(CCNc1ccccn1)Oc1ccc2c(=O)[nH][nH]c2c1, COc1c(-c2nc(Nc3cc(C)[nH]n3)c3ccccc3n2)ccc2[nH][nH]c(=O)c12, CN(C)c1nc(Nc2ccc3c(=O)[nH][nH]c3c2)nc(Nc2cc(C3CC3)[nH]n2)n1, O=c1[nH][nH]c2cc(NOCCNc3ccccn3)ccc12, Cc1cc(Nc2cccc(Oc3ccc4c(=O)[nH][nH]c4c3)n2)n[nH]1, O=c1[nH][nH]c2ccc(-c3cnnc(Nc4cc(C5CCCC5)[nH]n4)n3)cc12, O=c1[nH][nH]c2cc(NC3CCC(Nc4ccccn4)C3)ccc12 (stereo unspecified), O=c1[nH][nH]c2cc(C(F)(F)F)c(-c3nc(Nc4cc(C5CC5)[nH]n4)nc(-c4ccncc4)n3)cc12, O=c1[nH][nH]c2cc(SCCC(Nc3cc(C4CC4)[nH]n3)c3ccccc3)ccc12 (stereo unspecified), O=c1[nH][nH]c2cc(SC3CCCC(Nc4cc(C5CC5)[nH]n4)C3)ccc12 (stereo unspecified), O=c1[nH][nH]c2ccc(-c3nc(Nc4cc(-c5cccs5)[nH]n4)c4ccccc4n3)c(C(F)(F)F)c12, CC(C)c1cc(Nc2nc(Nc3ccc4c(=O)[nH][nH]c4c3)nc3ccccc23)n[nH]1, CN1CCN(c2cc(Nc3cc(C4CC4)[nH]n3)nc(Oc3ccc4c(=O)[nH][nH]c4c3)n2)CC1, O=c1[nH][nH]c2ccc(CNc3nc(Nc4cc(C5CC5)[nH]n4)cc(-c4ccccc4)n3)cc12, Cc1cc(Nc2nc(Nc3ccc4c(=O)[nH][nH]c4c3)nc(C)c2C)n[nH]1, O=c1[nH][nH]c2ccc(-c3nc(Nc4n[nH]c5ccccc45)cc(-c4ccccc4)n3)c(C(F)(F)F)c12, Cn1cnc(NCCC(=O)Nc2ccc3c(=O)[nH][nH]c3c2)c1, Cc1cnc(NCCONc2ccc3c(=O)[nH][nH]c3c2)s1, Cn1cnc(NCCCCc2ccc3c(=O)[nH][nH]c3c2)c1, COc1nc(Nc2ccc3c(=O)[nH][nH]c3c2)nc(Nc2cc(C3CC3)[nH]n2)n1, CNc1cnc(-c2ccc3[nH][nH]c(=O)c3c2C(F)(F)F)nc1Nc1n[nH]c2ccccc12, CCCCc1cc(Nc2nncc(-c3ccc4[nH][nH]c(=O)c4c3)n2)n[nH]1, O=c1[nH][nH]c2cc(Cl)c(-c3nc(Nc4n[nH]c5ccccc45)nc(-c4cccnc4)n3)cc12, O=C(CCCc1ccc2c(=O)[nH][nH]c2c1)Nc1nccnn1, O=c1[nH][nH]c2cc(CCC3CCCC3Nc3cc(C4CC4)[nH]n3)ccc12 (stereo unspecified), O=C(NC1CC1)c1cc(Nc2nc(-c3ccc4[nH][nH]c(=O)c4c3)nc3ccccc23)n[nH]1, Cc1nc(-c2ccc3[nH][nH]c(=O)c3c2C(F)(F)F)nc(Nc2n[nH]c(C(C)C)n2)c1C, Cc1cc(Nc2cc(-c3ccccc3C)nc(Oc3ccc4c(=O)[nH][nH]c4c3)n2)n[nH]1, Cc1cc(Nc2nc(COc3ccc4c(=O)[nH][nH]c4c3)nc3c2CN(Cc2ccccc2)CC3)n[nH]1, O=c1[nH][nH]c2cc(COc3cc(Nc4n[nH]c5ccccc45)c4ccccc4n3)ccc12, Cc1cc(Nc2nc(-c3cc4c(=O)[nH][nH]c4cc3C(F)(F)F)nc3cnoc23)n[nH]1, Cc1cc(Nc2cc(Nc3ccc4c(=O)[nH][nH]c4c3)nc3ccccc23)n[nH]1, Cc1cnc(NC(CCSc2ccc3c(=O)[nH][nH]c3c2)c2ccccc2)s1 (stereo unspecified), O=C(CCCc1ccc2c(=O)[nH][nH]c2c1)Nc1ccccn1, CCc1cccc2c(Nc3cc(C)[nH]n3)nc(-c3ccc4[nH][nH]c(=O)c4c3OC(F)(F)F)nc12, O=c1[nH][nH]c2cc(Nc3nc(Nc4cc(C5CC5)[nH]n4)cc(Oc4ccccc4)n3)ccc12, O=c1[nH][nH]c2cc(NCCONc3ccccn3)ccc12, O=c1[nH][nH]c2cc(Nc3ncc([N+](=O)[O-])c(Nc4cc(C5CC5)[nH]n4)n3)ccc12, Cc1nc(-c2ccc3[nH][nH]c(=O)c3c2Cl)nc(Nc2n[nH]c(C3CCCC3)n2)c1C, O=c1[nH][nH]c2ccc(-c3nnc(C4CCCCC4)c(Nc4n[nH]c5ccc(F)cc45)n3)c(C(F)(F)F)c12, Cc1cc(Nc2cc(N3CCCCC3)nc(SCc3ccc4[nH][nH]c(=O)c4c3)n2)n[nH]1, O=C(CCNc1nccnn1)Nc1ccc2c(=O)[nH][nH]c2c1, O=c1[nH][nH]c2ccc(C3CCCC(Nc4cc(C5CC5)[nH]n4)C3)cc12 (stereo unspecified), O=c1[nH][nH]c2ccc(-c3nc(Nc4cc(-c5ccccc5)[nH]n4)c4ccccc4n3)c(C(F)(F)F)c12, CCc1cc(Nc2cc(C)[nH]n2)nc(C(C)(C)c2ccc3c(=O)[nH][nH]c3c2)n1, C#Cc1c(-c2nc(Nc3n[nH]c(C)n3)c3ccccc3n2)ccc2[nH][nH]c(=O)c12, O=c1[nH][nH]c2cc(OC3CCCC(Nc4nccnn4)C3)ccc12 (stereo unspecified), O=c1[nH][nH]c2cc(Sc3nc(Nc4cc(C5CC5)[nH]n4)cc(-c4ccccc4)n3)ccc12, O=c1[nH][nH]c2cc(SC3COCC(Nc4cc(C5CC5)[nH]n4)C3)ccc12 (stereo unspecified), O=C(CCSc1ccc2c(=O)[nH][nH]c2c1)Nc1cc(C2CC2)[nH]n1, O=c1[nH][nH]c2cc(CCCONc3nccnn3)ccc12, O=c1[nH][nH]c2cc(SCCCNc3ccccn3)ccc12
